How the values were obtained:
Ornithine decarboxylase = target: T1, Ornithine decarboxylase (Rattus norvegicus, UniProt P09057); test: Inhibition of Ornithine decarboxylase in rat liver; Not inhibited
T1 sequence (P09057 whole entry): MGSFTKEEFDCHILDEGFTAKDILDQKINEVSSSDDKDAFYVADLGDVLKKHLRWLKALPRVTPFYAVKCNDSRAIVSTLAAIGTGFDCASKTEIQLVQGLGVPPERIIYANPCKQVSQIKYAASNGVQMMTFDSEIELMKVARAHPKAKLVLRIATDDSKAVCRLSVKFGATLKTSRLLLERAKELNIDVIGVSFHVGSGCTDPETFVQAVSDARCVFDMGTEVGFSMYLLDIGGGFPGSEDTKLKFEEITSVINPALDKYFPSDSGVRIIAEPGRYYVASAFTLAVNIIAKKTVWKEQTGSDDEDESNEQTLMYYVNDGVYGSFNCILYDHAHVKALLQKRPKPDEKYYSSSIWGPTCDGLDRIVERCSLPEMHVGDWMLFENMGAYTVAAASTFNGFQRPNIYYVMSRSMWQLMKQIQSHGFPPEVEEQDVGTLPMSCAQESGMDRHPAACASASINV

[1] = target: T2, S-adenosylmethionine decarboxylase proenzyme (Homo sapiens, UniProt P17707); test: Inhibitory activity against S-adenosyl-L-methionine decarboxylase was determined; NI means No inhibition
T2 sequence (P17707 whole entry): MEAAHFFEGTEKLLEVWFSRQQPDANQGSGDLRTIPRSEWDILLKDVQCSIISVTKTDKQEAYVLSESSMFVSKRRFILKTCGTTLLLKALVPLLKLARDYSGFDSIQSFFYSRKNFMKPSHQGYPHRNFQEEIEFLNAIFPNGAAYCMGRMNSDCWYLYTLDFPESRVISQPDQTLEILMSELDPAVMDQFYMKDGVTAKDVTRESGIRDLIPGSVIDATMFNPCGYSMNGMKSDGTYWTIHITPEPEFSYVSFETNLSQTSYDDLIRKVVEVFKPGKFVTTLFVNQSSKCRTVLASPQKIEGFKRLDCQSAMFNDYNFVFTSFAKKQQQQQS

Spermidine synthase = target: T3, Spermidine synthase (Rattus norvegicus, UniProt Q99MI5); test: Inhibition of Putrescine aminopropyltransferase (PAPT) in rat liver.
T3 sequence (Q99MI5 whole entry): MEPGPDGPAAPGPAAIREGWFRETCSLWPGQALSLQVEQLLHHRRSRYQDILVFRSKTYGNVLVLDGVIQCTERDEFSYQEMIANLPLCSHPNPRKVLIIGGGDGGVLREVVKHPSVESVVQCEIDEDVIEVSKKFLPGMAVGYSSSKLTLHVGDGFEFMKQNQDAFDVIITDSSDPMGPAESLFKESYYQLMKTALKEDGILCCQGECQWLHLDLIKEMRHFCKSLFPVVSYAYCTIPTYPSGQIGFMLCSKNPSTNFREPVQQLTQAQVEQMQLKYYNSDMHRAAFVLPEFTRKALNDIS

[2] = target: Spermine synthase (Rattus norvegicus); test: Inhibition of Spermidine aminopropyltransferase (SAPT) in rat liver.

NCCCCNC(CCN)CC[C@H]1OC(n2cnc3c(N)ncnc32)[C@H](O)[C@@H]1O (some centres undefined)
IC50 (Ornithine decarboxylase): No inhibition
IC50 [1]: Not Active

NCCCNCCCCCC(CCN)SC[C@H]1OC(n2cnc3c(N)ncnc32)[C@H](O)[C@@H]1O (some centres undefined)
IC50 (Spermidine synthase): > 10000 nM
IC50 [2]: 50 nM

Source: ChEMBL document CHEMBL1128469, “Synthesis and biochemical evaluation of adenosylspermidine, a nucleoside-polyamine adduct inhibitor of spermidine synthase” (J Med Chem, 1995)
